Laboratory results as given in patent publication US9668993B2, “Non-steroidal anti-inflammatory drug dosing regimen” (Johnson & Johnson Consumer Inc., priority 2003, dated 2017).

System: moderate to severe post-operative dental pain
Experiment: PK/PD dental pain study, pain relief scores and pain intensity differences over 12 hours
Assay type: in vivo, human
Conditions: for pain relief during the first four hours: compared with the other treatments
Procedure: A double-blind, randomized, parallel, placebo-controlled, single center, PK/PD dental pain study was conducted over a 12 hour observation period to evaluate the pharmacokinetic, pharmacodynamic, efficacy and safety profiles of certain ibuprofen dosing regimens. Specifically, a single dose of 600 mg ibuprofen extended release caplets was compared with equivalent total doses of ibuprofen immediate release 200 mg caplets administered in three different dosing regimens as well as placebo in the treatment of moderate to severe post-operative dental pain.
The ibuprofen was administered as ibuprofen extended release 600 mg caplets or one or more ibuprofen immediate release 200 mg caplets.
The patients evaluated in this study consisted of male or non-pregnant and non-lactating female out-patient volunteers, 16 years of age or older, complaining of moderate to severe pain following the surgical extraction of three or four third molars with at least one partial or complete bony impacted third mandibular molar. The term impacted included: partial bony impaction, bony impaction, or complicated bony impaction. A total of 210 patients were entered into the study. 208 patients were eligible for the efficacy analyses.
All patients who met the entrance criteria were enrolled in one of two study sub-groups. One sub-group of patients had both pharmacokinetic and pharmacodynamic evaluation (PK group). The other sub-group of patients had only the analgesic efficacy evaluations (non-PK group). A separate randomization schedule was used for each of the two sub-groups. Patients from both subgroups were assigned at random to one of the five following treatments:
Patients' assessments of pain intensity and pain relief as well as blood samples for plasma ibuprofen analysis were obtained at the study site at hours 0, 0.25, 0.5, 1, 1.5, 2, 2.5, 3, 4, 4.5, 5, 6, 7, 8, 8.5, 9, 10, 11 and 12. A stopwatch technique was used to measure the onset of meaningful pain relief.

## CC(C)Cc1ccc(C(C)C(=O)O)cc1 (centres unmarked) [ibuprofen, 2-(4-isobutylphenyl)-propionic acid]
400/200/0 regimen: immediate release 400 mg at 0 hour, 200 mg at 4 hours
  pain relief during the first four hours: superior pain relief over the other treatments
400/200/0 regimen: immediate release 400 mg at 0 hour, 200 mg at 4 hours, patients after third molar extraction
  pain relief over the entire 12 hour study period: excellent pain relief
400/200/0 regimen, no further ibuprofen after the first four hours
  pain relief scores during the 4 to 12 hour interval: highest pain relief scores
400/200/0 regimen, particularly after the four hour mark
  pain intensity differences (PID) over the 12 hour study period: best PID
600/0/0 immediate release regimen: 600 mg single dose at 0 hour
  pain relief during the first four hours: superior pain relief over the other treatments
